The subject of one data set is Artemia salina. Briefly: Toxicity in Artemia salina after 24 hrs. The format is organism-based. To be noted: in vivo.
A further data set deals with Candida albicans. Briefly: Antimicrobial activity against Candida albicans by disk diffusion assay. Format: functional, organism-based. In general terms: In agar diffusion tests the substance spreads into inoculated agar from a disc or well.
The subject of a further data set is Escherichia coli. Briefly: Antimicrobial activity against Escherichia coli by disk diffusion assay. The format is functional, organism-based.
A further data set has as its system Pseudomonas aeruginosa. Briefly: Antimicrobial activity against Pseudomonas aeruginosa by disk diffusion assay. The format is functional, organism-based.
The next data set deals with Geotrichum candidum. Briefly: Antimicrobial activity against Geotrichum candidum by disk diffusion assay. Format: functional, organism-based.
The next data set relates to Fusarium oxysporum. Briefly: Antimicrobial activity against Fusarium oxysporum by disk diffusion assay. Format: functional, organism-based.
In another data set the test system is Aspergillus niger. Briefly: Antimicrobial activity against Aspergillus niger by disk diffusion assay. Format: functional, organism-based.

SMILES strings stand for the structures. Activity calls are given as the source filed them. No cut-off for these calls is given here.

As to `CCCCCCCC[C@H](C(=O)O)[C@H](C)C(=O)O` [SPHAERIC ACID], the Activity result in the data set with Artemia salina is given as “Non-toxic”. For the same compound, the outcome with Candida albicans, in the data set with Escherichia coli, in the data set with Pseudomonas aeruginosa, with Geotrichum candidum, in the data set with Fusarium oxysporum and in the data set on Aspergillus niger was inactive.

For the origin of these results see ChEMBL document CHEMBL1157273, “Sphaeric acid, a new succinic acid derivative from a Sphaeropsis sp” (J Nat Prod, 1999).
